Reference: publication PMC12396409, “Screening and hit evaluation of a microbial metabolite library against the pathogenic Plasmodium falciparum and Toxoplasma gondii parasites” (International Journal for Parasitology: Drugs and Drug …, 2025)
Like-named read-outs stand apart in the source and are kept apart here. Where a SMILES comes first, the peptide text is derived from it. [ ]: non-standard residue; d: D form. Phe(ol) = N[C@H](CO)Cc1ccccc1; Aib = CC(C)(N)C(=O)O

Columns and labels:
[1] = test system: P. falciparum 3D7 parasites; assay: P. falciparum growth inhibition assay, 1-cycle (72 h treatment), SYBR DNA staining (library screen at 2 μg/mL and dose-response); format: cell-based, Plasmodium falciparum
[2] = test system: P. falciparum 3D7 parasites; assay: P. falciparum growth inhibition assay, 2-cycle (120 h treatment), delayed-death screen and dose-response; format: cell-based, Plasmodium falciparum
[3] = test system: T. gondii RH strain (RH-Tub-eYFP) tachyzoites; assay: microbe, parasite or virus in culture; format: cell-based, Toxoplasma gondii; details: 72 h; for percent parasite growth at 2 µg/mL: Toxoplasma gondii
[4] = T. gondii, 2 μg/mL, values are growth (% of control)
[5] = P. falciparum 3D7, 72 h, library screen at 2 μg/mL, % growth, replicate 1
[6] = P. falciparum 3D7, 72 h, library screen at 2 μg/mL, % growth, replicate 2
[7] = P. falciparum 3D7, 120 h, library screen at 2 μg/mL, % growth, replicate 1
[8] = P. falciparum 3D7, 120 h, library screen at 2 μg/mL, % growth, replicate 2
[9] = T. gondii RH, library screen at 2 μg/mL, % growth, replicate 1
[10] = T. gondii RH, library screen at 2 μg/mL, % growth, replicate 2

## C[C@@H]1C[C@@H]([C@H](O)CC2CC(=O)NC(=O)C2)C(=O)[C@@H](C)C1 [cycloheximide, reference compound]
[1]; 2 μg/mL, 72 h, active = ≥80 % growth inhibition
  activity in the screen against P. falciparum: active
[1]; Plasmodium falciparum, 3D7, P. falciparum, 72 h, screen at 2 μg/mL, replicate 1, read-out: Pf_72h_%Growth_Rep1
  activity at 2 µg/mL: 1.07%
[1]; Plasmodium falciparum, 3D7, P. falciparum, 72 h, screen at 2 μg/mL, replicate 2, read-out: Pf_72h_%Growth_Rep2
  activity at 2 µg/mL: 4.34%
[2]; Plasmodium falciparum, 3D7, P. falciparum, 120 h, screen at 2 μg/mL, replicate 1, read-out: Pf_120h_%Growth_Rep1
  activity at 2 µg/mL: 1.73%
[2]; Plasmodium falciparum, 3D7, P. falciparum, 120 h, screen at 2 μg/mL, replicate 2, read-out: Pf_120h_%Growth_Rep2
  activity at 2 µg/mL: 0.69%
[3]; T. gondii, screen at 2 μg/mL, replicate 1, read-out: Tg_72h_%Growth_Rep1
  percent parasite growth at 2 µg/mL: 7.84%
[3]; T. gondii, screen at 2 μg/mL, replicate 2, read-out: Tg_72h_%Growth_Rep2
  percent parasite growth at 2 µg/mL: 1.95%

## CC(=O)O[C@H]1C[C@]2(C)[C@H]3CC[C@]4(C)Oc5oc(C)cc(=O)c5C[C@H]4[C@]3(C)CC[C@H]2C(C)(C)[C@H]1OC(C)=O [Sartorypyrone B]
[1]; P. falciparum, 72 h, parasite screen 2 μg/mL, % growth, replicate 1
  Pf_72h_%Growth_Rep1: 77.80%
[1]; P. falciparum, 72 h, parasite screen 2 μg/mL, % growth, replicate 2
  Pf_72h_%Growth_Rep2: 111.47%
[2]; P. falciparum, 120 h, parasite screen 2 μg/mL, % growth, replicate 1
  Pf_120h_%Growth_Rep1: 68.83%
[2]; P. falciparum, 120 h, parasite screen 2 μg/mL, % growth, replicate 2
  Pf_120h_%Growth_Rep2: 125.68%
[3]; T. gondii, parasite screen 2 μg/mL, % growth, replicate 1
  Tg_72h_%Growth_Rep1: 114.72%
[3]; T. gondii, parasite screen 2 μg/mL, % growth, replicate 2
  Tg_72h_%Growth_Rep2: 87.54%

## CC(=O)NC(C)(C)C(=O)N1CCC[C@H]1C(=O)NC(C)(C)C(=O)N[C@@H](C)C(=O)NC(C)(C)C(=O)N[C@@H](C)C(=O)N[C@@H](CCC(N)=O)C(=O)NC(C)(C)C(=O)N[C@H](C(=O)NC(C)(C)C(=O)NCC(=O)N[C@@H](CC(C)C)C(=O)NC(C)(C)C(=O)N1CCC[C@H]1C(=O)N[C@H](C(=O)NC(C)(C)C(=O)NC(C)(C)C(=O)N[C@@H](CCC(N)=O)C(=O)N[C@@H](CCC(N)=O)C(=O)N[C@H](CO)Cc1ccccc1)C(C)C)C(C)C [Alamethicin F50] (Ac-[Aib]P[Aib]A[Aib]AQ[Aib]V[Aib]GL[Aib]PV[Aib][Aib]QQ[Phe(ol)])
[1]; Plasmodium falciparum, 3D7; P. falciparum, 2 μg/mL, 72 h; read-out: 1) Growth (%) at 72 h
  activity at 2 µg/mL: 22%
[1]; Plasmodium falciparum, 3D7, library screen at 2 μg/mL, 72 h, % growth, replicate 1, read-out: Pf_72h_%Growth_Rep1
  activity at 2 µg/mL: 21.9%
[1]; Plasmodium falciparum, 3D7, library screen at 2 μg/mL, 72 h, % growth, replicate 2, read-out: Pf_72h_%Growth_Rep2
  activity at 2 µg/mL: 22.1%
[2]; P. falciparum, growth at 72 h / growth at 120 h, 2 μg/mL
  3) Fold change (72 h/120 h): 6.4
[2]; Plasmodium falciparum, 3D7; P. falciparum, 2 μg/mL, 120 h; read-out: 2) Growth (%) at 120 h
  activity at 2 µg/mL: 3.45%
[2]; Plasmodium falciparum, 3D7, library screen at 2 μg/mL, 120 h, % growth, replicate 1, read-out: Pf_120h_%Growth_Rep1
  activity at 2 µg/mL: 8.66%
[2]; Plasmodium falciparum, 3D7, library screen at 2 μg/mL, 120 h, % growth, replicate 2, read-out: Pf_120h_%Growth_Rep2
  activity at 2 µg/mL: -1.76%
[3]; library screen at 2 μg/mL, % growth, replicate 1, read-out: Tg_72h_%Growth_Rep1
  percent parasite growth at 2 µg/mL: 92.3%
[3]; library screen at 2 μg/mL, % growth, replicate 2, read-out: Tg_72h_%Growth_Rep2
  percent parasite growth at 2 µg/mL: 87.6%

## CCCCCC1=C/C(=C/c2[nH]c(-c3ccc[nH]3)cc2OC)N=C1C [Prodigiosin]
[1]; Plasmodium falciparum, 3D7, P. falciparum, 72 h, parasite screen 2 μg/mL, % growth, replicate 1, read-out: Pf_72h_%Growth_Rep1
  activity at 2 µg/mL: 5.96%
[1]; Plasmodium falciparum, 3D7, P. falciparum, 72 h, parasite screen 2 μg/mL, % growth, replicate 2, read-out: Pf_72h_%Growth_Rep2
  activity at 2 µg/mL: 4.13%
[2]; Plasmodium falciparum, 3D7, P. falciparum, 120 h, parasite screen 2 μg/mL, % growth, replicate 1, read-out: Pf_120h_%Growth_Rep1
  activity at 2 µg/mL: -0.86%
[2]; Plasmodium falciparum, 3D7, P. falciparum, 120 h, parasite screen 2 μg/mL, % growth, replicate 2, read-out: Pf_120h_%Growth_Rep2
  activity at 2 µg/mL: 19.4%
[3]; T. gondii, 2 μg/mL, mean of both replicates, growth (% of control)
  Mean: 25.60
[3]; [4]
  Replicate 1: 39.74
  Replicate 2: 11.46
[3]; T. gondii, parasite screen 2 μg/mL, % growth, replicate 1, read-out: Tg_72h_%Growth_Rep1
  percent parasite growth at 2 µg/mL: 39.7%
[3]; T. gondii, parasite screen 2 μg/mL, % growth, replicate 2, read-out: Tg_72h_%Growth_Rep2
  percent parasite growth at 2 µg/mL: 11.5%

## CCC(C=CC1OC(=O)C=CC1C)=CC(C)CC=CC(C)=CC(C)C(=O)C(C)C(O)C(C)CC(C)=CC(=O)O (stereo not shown) [BIA-L1046]
[1]; [5]
  Pf_72h_%Growth_Rep1: 6.41%
[1]; [6]
  Pf_72h_%Growth_Rep2: 2.57%
[2]; [7]
  Pf_120h_%Growth_Rep1: 2.03%
[2]; [8]
  Pf_120h_%Growth_Rep2: 15.00%
[3]; [9]
  Tg_72h_%Growth_Rep1: 1.37%
[3]; [10]
  Tg_72h_%Growth_Rep2: 0.53%

## CC(=O)NCCc1c[nH]c2ccc(O)cc12 [Acetylserotonin, N-]
[1]; library screen at 2 μg/mL, 72 h, % growth, replicate 1
  Pf_72h_%Growth_Rep1: 83.62%
[1]; library screen at 2 μg/mL, 72 h, % growth, replicate 2
  Pf_72h_%Growth_Rep2: 79.72%
[2]; library screen at 2 μg/mL, 120 h, % growth, replicate 1
  Pf_120h_%Growth_Rep1: 81.51%
[2]; library screen at 2 μg/mL, 120 h, % growth, replicate 2
  Pf_120h_%Growth_Rep2: 80.80%
[3]; library screen at 2 μg/mL, % growth, replicate 1
  Tg_72h_%Growth_Rep1: 128.90%
[3]; library screen at 2 μg/mL, % growth, replicate 2
  Tg_72h_%Growth_Rep2: 97.07%

## CCCC(=O)OC1C(C)OC(OC2C(C)OC(OC3C(CC=O)CC(C)C(O)C=CC=CCC(C)OC(=O)CC(O)C3OC)C(O)C2N(C)C)CC1(C)O (stereo not shown) [BIA-L1357]
[1]; [5]
  Pf_72h_%Growth_Rep1: 53.81%
[1]; [6]
  Pf_72h_%Growth_Rep2: 78.28%
[2]; [7]
  Pf_120h_%Growth_Rep1: 3.21%
[2]; [8]
  Pf_120h_%Growth_Rep2: 21.14%
[3]; [9]
  Tg_72h_%Growth_Rep1: 30.88%
[3]; [10]
  Tg_72h_%Growth_Rep2: 21.24%
